Assay results as given in publication PMC5386260, “Acute development of cortical porosity and endosteal naïve bone formation from the daily but not weekly short-term administration of PTH in rabbit” (PLoS ONE, 2017).

Legend:
endosteal bone collagen = settings: rabbit, in vivo
Description: (§1) Calcein (Dojindo Laboratories, Kumamoto, Japan) was subcutaneously injected into each animal at a dose of 10 mg/kg body weight on days 13 and 5 before sacrifice for bone double labeling (1-7-1-3). After the dosing period, the animals were euthanized by exsanguination under anesthesia using thiopental. The left and right tibiae were collected for a micro-CT analysis and histomorphometry, respectively. The kidneys, thyroid and parathyroid of all animals were collected and fixed in 10% neutral buffered formalin for a histopathological examination. The left tibiae were packed in plastic bags and stored at -30°C until use in a micro-CT analysis and mechanical testing. […]
An upright multi-photon excited microscopy system (A1RMP, Nikon Corporation, Japan) situated at the Imaging core facility of The Institute of Medical Science, The University of Tokyo was employed to acquire bone collagen-derived SHG signals and two-photon excited auto-fluorescence signals from Calcein-labeled undecalcified bone sections. […] The detection wavelengths were 420–425 nm and 500–550 nm for the acquisition of collagen-derived SHG signals and auto-fluorescence signals from soft tissue, respectively. […]

[1] = system: endosteal surface of rabbit tibiae; experiment: DIC bright field and deconvolution fluorescence imaging of tibia sections; type: in vivo; settings: daily administration (D20 and D40), 4 weeks
Description: as §1
Calcein-labeled undecalcified bone sections were subjected to imaging acquisition using a microscopy system, ECLIPSE Ni (Nikon, Tokyo, Japan) equipped with differential interference contrast microscopy (DIC) and objectives (Nikon), as follows: Plan Apo λ 10x (numerical aperture [N.A.] = 0.45), Plan Apo λ 20x (N.A. = 0.75), and Plan Apo λ 40x (N.A. = 0.95). The fluorescence signals were obtained using filter sets, GFP-B (excitation: 460–500 nm, DM: 505 nm, emission: 510–560 nm; Nikon) for calcein, and TxRed (excitation: 540–580 nm, DM: 595 nm, emission: 600–660 nm; Nikon) for auto-fluorescence derived from soft tissue. […] The fluorescence and DIC images were sequentially acquired, with a pixel size of 0.64 μm. […]

[2] = system: kidneys, thyroid and parathyroid; experiment: Histopathological examination of kidney, thyroid and parathyroid; settings: rabbit, in vivo
Description: Calcein (Dojindo Laboratories, Kumamoto, Japan) was subcutaneously injected into each animal at a dose of 10 mg/kg body weight on days 13 and 5 before sacrifice for bone double labeling (1-7-1-3). After the dosing period, the animals were euthanized by exsanguination under anesthesia using thiopental. The left and right tibiae were collected for a micro-CT analysis and histomorphometry, respectively. The kidneys, thyroid and parathyroid of all animals were collected and fixed in 10% neutral buffered formalin for a histopathological examination. The left tibiae were packed in plastic bags and stored at -30°C until use in a micro-CT analysis and mechanical testing. The right tibiae were fixed in 70% ethanol, stained with Villanueva bone stain, dehydrated in a graded ethanol series, defatted in acetone, and embedded in polymethyl methacrylate (Wako Pure Chemical Industries, Osaka, Japan). Thin ground sections of 10–20 μm in thickness were prepared using a micro cutting machine and a grinding machine (EXAKT, Germany) from a cross-section at a plane that was 3 mm proximal from the tibiofibular junction, and were subjected to bone histomorphometry. Right iliac crest were also fixed in 70% ethanol and processed for Vilanueva bone stain, dehydration, defattation, polymethyl methacrylate embedding and sectioning to 5 μm for three-dimensional second harmonic generation (3D-SHG) imaging. […]

**Q.** For CC[C@H](C)[C@H](NC(=O)[C@H](CCC(=O)O)NC(=O)[C@H](CO)NC(=O)[C@@H](NC(=O)[C@@H](N)CO)C(C)C)C(=O)N[C@@H](CCC(N)=O)C(=O)N[C@@H](CC(C)C)C(=O)N[C@@H](CCSC)C(=O)N[C@@H](Cc1cnc[nH]1)C(=O)N[C@@H](CC(N)=O)C(=O)N[C@@H](CC(C)C)C(=O)NCC(=O)N[C@@H](CCCCN)C(=O)N[C@@H](Cc1cnc[nH]1)C(=O)N[C@@H](CC(C)C)C(=O)N[C@@H](CC(N)=O)C(=O)N[C@@H](CO)C(=O)N[C@@H](CCSC)C(=O)N[C@@H](CCC(=O)O)C(=O)N[C@@H](CCCN=C(N)N)C(=O)N[C@H](C(=O)N[C@@H](CCC(=O)O)C(=O)N[C@@H](Cc1c[nH]c2ccccc12)C(=O)N[C@@H](CC(C)C)C(=O)N[C@@H](CCCN=C(N)N)C(=O)N[C@@H](CCCCN)C(=O)N[C@@H](CCCCN)C(=O)N[C@@H](CC(C)C)C(=O)N[C@@H](CCC(N)=O)C(=O)N[C@@H](CC(=O)O)C(=O)N[C@H](C(=O)N[C@@H](Cc1cnc[nH]1)C(=O)N[C@@H](CC(N)=O)C(=O)N[C@@H](Cc1ccccc1)C(=O)O)C(C)C)C(C)C [TPTD, Teriparatide], which “endosteal bone collagen pattern (3D-SHG)” value (endosteal bone collagen) is on record?
**A.** amorphously short fibers

**Q.** What about the “microscopic findings at the endosteal surface” value [1] of the same compound?
**A.** development of bone marrow fibrosis and poorly mineralized and disorganized bone formation

**Q.** What about the “general histopathological examination, toxic effects” value [2] of the same compound?
**A.** No obvious toxic effects were observed in any specimens
